Measured values taken from patent US20150140043A1, “IMMUNOMODULATORY METHODS USING NOTCH AGONISTS” (INSTITUT NATIONAL DE LA SANTE DE LA RECHERCHE MEDICAL …, priority 2012, published 2015).

How the values were obtained:
Type in all cases: cell-based, human
[1] = test system: CD4+CD25- T cell proliferation; assay: Sensitizing assay: cells pre-incubated with NOTCH ligands, washed, then cultured with anti-CD3 with or without Treg; conditions: for Percentage of inhibition of cell proliferation by Treg: CD4+CD25- T cells pre-exposed overnight to ligand (5 μg/ml), Treg ratio 1:8, 5 days anti-CD3, mean of 4 experiments; for Effect of exposure of Treg to ligand on Treg capacity to suppress CD4+CD25- proliferation: Treg exposed to ligand, anti-CD3 mAbs, data not shown
Description: FIG. 1: NOTCH signalling is involved in Treg mediated inhibition of anti-CD3 stimulated CD4^+CD25^− T cell proliferation • A) Various ratio of CD4^+CD25^− T cells and CD4^+CD25^high T cells were cultured for 5 days in coated wells with anti-CD3 (1 μg/ml) in the presence or not of inhibitor of g-secretase (GSI 10 μM). Percentages of inhibition were calculated from the raw data using the equations: 1—(mean cpm of co-culture wells divided by mean cpm of CD4^+CD25^− cells cultured alone)×100. The data represent the mean±SEM and are representative of 5 independent experiments. * indicates P<0.05. • B) CD4^+CD25^−T cells were cultured for 18 hours in coated wells with anti-CD3 and NOTCH ligands (5 μg/ml) or IgG control (5 μg/ml). Then, T cells were washed and incubated for 5 days in coated wells with anti-CD3 in the absence or presence of Treg at ratio 1:8. The data represent the mean±SEM of inhibition of T cell proliferation of 5 independent experiments.
(§1) Peripheral blood mononuclear cells were separated by Ficoll-Hypaque centrifugation (Amersham Biosciences) from buffy coats obtained from healthy blood donors (EFS, Créteil). CD4^+ CD25^− T cells and CD4^+CD25^high T cells were isolated using a CD4^+ T cell enrichment column and a human CD4^+CD25^+ Treg isolation kit purchased from Miltenyi Biotec. CD4^+CD25^− cells and CD4^+CD25^+ cells were enriched to greater than 95% purity. Cells were plated in media at a concentration of 1.25×10^5 to 5×10^5 cells per ml in a 96-well round-bottom plates coated with 1 μg/ml of anti-CD3 (UCHT1) and 5 μg/ml of NOTCH Ligand (DL-1-Fc, DL-4-Fc and Jagged-1-Fc are a generous Gift from Dr. Sakano).
A total of 2.5×10^4 CD4^+CD25^− T cells were cultured with various ratios of CD4^+CD25^high cells and 1 μg/ml of anti-CD3 for 5 days, in the presence or absence of 10 μm of the gamma-secretase inhibitor Compound E. A total of […] [^3H] thymidine (Amersham Pharmacia) was added to the wells during the last 16 hours of culture. The cells were then harvested and assessed for [^3H] thymidine incorporation using a liquid scintillation counter. Results were expressed as mean cpm of quadriplicate culture wells.
(§2) Percentage of inhibition was calculated as follows: 1−(mean cpm of co-culture wells divided by mean cpm of CD4^+CD25^− cells cultured alone)×100.
In sensitizing assays CD4^+CD25^− and CD4^+CD25^high were pre-incubated during 16 hours on coated NOTCH Ligand. Cells were also collected, washed and incubated alone or with Treg and stimulated as described above. Some experiments were performed in the presence of anti-TGF-β or IgG control (2.5 μg/ml). […]

[2] = test system: CD4+CD25- T cell proliferation; assay: Coculture of effector T cells and Treg at low ratio on immobilized NOTCH ligands, with or without anti-TGF-β; parameters: Mean inhibition of T cell proliferation / Mean inhibition of T cell proliferation in the presence of anti-TGF-β mAbs: unit of the concentration uncertain
Description: FIG. 2: NOTCH suppresses the proliferation of CD4^+CD25^− T cells through TGF-β • A) CD4^+CD25^−T cells were cultured for 5 days in coated wells with anti-CD3 and NOTCH ligands (5 μg/ml) or IgG control (5 μg/ml) in the presence of Treg at ratio 1:16. Anti-TGF-β or IgG control mAbs (2.5 μg/ml) were added at the beginning of the co-culture. The data represent the mean±SEM. * indicates P<0.05. • B) CD4^+CD25^−T cells were cultured for 5 days in coated wells with anti-CD3 and NOTCH ligands (5 μg/ml) or IgG control (5 μg/ml). Low dose of TGF-β (0.1 ng/ml) was added. The data represent the mean±SEM.
as §1, §2
In sensitizing assays CD4^+CD25^− and CD4^+CD25^high were pre-incubated during 16 hours on coated NOTCH Ligand. Cells were also collected, washed and incubated alone or with Treg and stimulated as described above. Some experiments were performed in the presence of anti-TGF-β or IgG control (2.5 μg/ml).
The implication of NOTCH1 on effector T cell responses in the presence of Treg through a TGF-β signalling mechanism has not yet been elucidated. To test this, a coculture experiments of effector T cells and Treg at a low ratio (ratio 1:16) in the presence of immobilized NOTCH ligands DL1, DL4 and Jagged-1 or Ig controls at […] was performed. […]

TGF-βRII RNA expression = assay: Quantitative real-time PCR of TGF-βRII transcripts in CD4+CD25- T cells; conditions: coated anti-CD3 (200 ng/ml) and ligand (5 μg/ml) for 3 hours
Description: FIG. 3: TGF-βRII expression on effector T cells after NOTCH ligands exposure • A) CD4^+CD25^−T cells were purified using Miltenyi microbeads from PBMC and cultured for 3 hours in coated wells with anti-CD3 (200 ng/ml) and NOTCH ligands (5 μg/ml) or IgG control (5 μg/ml). Quantitative real-time PCR was performed to measure the transcripts levels of TGF-βRII. Data shown are mean±SEM and are representative of 4 independent experiments. * indicates P<0.05. • B) Protein levels of TGF-βRII in CD4^+CD25^−T cells stimulated to DL-1, DL-4 and Jagged-1 using FACS analysis. Mean of fluorescence are represented±SEM. * indicates P<0.05.
CD4^+CD25^− T cells were cultured for 3 hours in coated wells with anti-CD3 (200 ng/ml) and NOTCH ligands (5 μg/ml) or IgG control (5 μg/ml). Total RNA was extracted with Trizol (Invitrogen) and purified by chloroform extraction. RNA was then reverse transcribed using 1 mM oligodT and the Superscript™ HH Rnase H-reverse transcriptase (Invitrogen Life technologies) according to the manufacturer's instructions. Quantitative PCR was performed in a LightCycler System (Roche diagnostics) using a SYBR Green PCR kit from Roche Diagnostics. The cDNA input for each population was normalized to obtain equivalent signals with Splicing Factor 3A1 (SF3A1) used as housekeeping gene. Primers used were: […]
Active TGF-β mediates its biological functions by binding to TGF-β type I and type II receptors (TGF-βRII). Therefore, the effects of NOTCH activation on TGF-βRII expression of effector T cells were first investigated. […] This effect is abrogated in the presence of GSI (P<0.05 for comparison with culture performed without GSI vehicle).

With “Jagged-1: recombinant NOTCH ligand Jagged-1, used coated as Jagged-1-Fc (SEQ ID NO: 5)” the “Percentage of inhibition of cell proliferation by Treg” value [1] was 65%, the “Effect of exposure of Treg to ligand on Treg capacity to suppress CD4+CD25- proliferation” value [1] was “did not modify the Treg capacity” and the “Mean inhibition of T cell proliferation in the presence of anti-TGF-β mAbs” value ([2]; coculture with Treg at ratio 1:16, immobilized ligand at 5 µg/mL, anti-TGF-β 2.5 µg/mL added at the beginning of the culture) was 19.3%. For the same molecule, the “Mean inhibition of T cell proliferation” value ([2]; coculture with Treg at ratio 1:16, immobilized ligand at 5 µg/mL, no anti-TGF-β) was 65% and the “TGF-βRII RNA expression, increase compared to IgG control” value (TGF-βRII RNA expression) was 2.8 fold.

B1: DL-1: recombinant NOTCH ligand Delta-like 1, used coated as DL-1-Fc (SEQ ID NO: 8) (protein, listed as Homo sapiens)
chain: MGSRCALALAVLSALLCQVWSSGVFELKLQEFVNKKGLLGNRNCCRGGAGPPPCACRTFFRVCLKHYQASVSPEPPCTYGSAVTPVLGVDSFSLPDGGGADSAFSNPIRFPFGFTWPGTFSLIIEALHTDSPDDLATENPERLISRLATQRHLTVGEEWSQDLHSSGRTDLKYSYRFVCDEHYYGEGCSVFCRPRDDAFGHFTCGERGEKVCNPGWKGPYCTEPICLPGCDEQHGFCDKPGECKCRVGWQGRYCDECIRYPGCLHGTCQQPWQCNCQEGWGGLFCNQDLNYCTHHKPCKNGATCTNTGQGSYTCSCRPGYTGATCELGIDECDPSPCKNGGSCTDLENSYSCTCPPGFYGKICELSAMTCADGPCFNGGRCSDSPDGGYSCRCPVGYSGFNCEKKIDYCSSSPCSNGAKCVDLGDAYLCRCQAGFSGRHCDDNVDDCASSPCANGGTCRDGVNDFSCTCPPGYTGRNCSAPVSRCEHAPCHNGATCHERGHRYVCECARGYGGPNCQFLLPELPPGPAVVDLTEKLEGQGGPFPWVAVCAGVILVLMLLLGCAAVVVCVRLRLQKHRPPADPCRGETETMNNLANCQREKDISVSIIGATQIKNTNKKADFHGDHSADKNGFKARYPAVDYNLVQDLKGDDTAVRDAHSKRDTKCQPQGSSGEEKGTPTTLRGGEASERKRPDSGCSTSKDTKYQSVYVISEEKDECVIATEV
In the case of B1, the “Percentage of inhibition of cell proliferation by Treg” value [1] is reported as 64.8%, the “Effect of exposure of Treg to ligand on Treg capacity to suppress CD4+CD25- proliferation” value [1] is reported as “did not modify the Treg capacity” and the “Effect of anti-TGF-β on coculture of Treg and ligand-treated effector T cells” value ([2]; Treg ratio 1:16, anti-TGF-β 2.5 μg/ml) is reported as “did not affect”. For the same molecule, the “TGF-βRII RNA expression, increase compared to IgG control” value (TGF-βRII RNA expression) was “did not significantly modify”.
